{"source": "paper PMC8400542", "about": "“Anti-Inflammatory, Antipyretic, and Analgesic Properties of Potamogeton perfoliatus Extract: In Vitro and In Vivo Study” (Molecules, 2021)", "key": {"[1]": {"test": "Total antioxidant capacity (TAC) ELISA kit assay", "settings": "mean ± SE", "procedure": "The antioxidant potential of the extract was evaluated by determining its TAC using a TAC ELISA kit (MBS726896, my BioSource, Inc., San Diego, CA, USA) in accordance with the manufacturer’s instructions and compared to the standard antioxidant, ascorbic acid as previously described Sobeh et al.."}, "[2]": {"tested_on": "acetic acid-induced vascular permeability in mice", "test": "Acetic acid-induced vascular permeability (Evans blue)", "type": "in vivo, mouse", "settings": "20 mg/kg, p.o., compared to control mice", "procedure": "To study the effect of the extract on the vascular phase of inflammation, acetic acid-induced vascular permeability was performed as described previously by Sobeh et al.. […] One hour later, Evans blue (0.25% solution in normal saline, 0.2 mL) was injected in the tail vein. Acetic acid (0.6% in normal saline, 1 mL/100 g) was then injected after 30 min in the peritoneal cavity of the treated mice. The normal control was injected with normal saline only. Mice were euthanized 30 min later by cervical dislocation, the abdominal cavities were washed with 3 mL saline solution and the collected washings were then centrifuged at 3000 rpm for 10 min. The vascular permeability is proportional to the absorbance of Evans blue dye in the supernatant, which was measured at 610 nm using a plate reader (Biotek, Winooski, VT, USA).\nFigure 3 (A) Results from P. perfoliatus extract on carrageenan-induced leukocyte migration into the peritoneal cavity in mice (total number × 10^6). […] (B) Results from P. perfoliatus extract on acetic acid-induced vascular permeability. Mice received different treatments 1 h before acetic acid (0.6%, i.p.) and Evans blue dye injections. The amount of dye extravasation into the abdominal cavity was quantified and used as an indicator of inflammation degree. […]"}, "[3]": {"tested_on": "carrageenan-induced leukocyte migration in mice", "test": "Carrageenan-induced leukocyte migration into the peritoneal cavity", "type": "in vivo, mouse", "settings": "20 mg/kg, p.o.", "procedure": "Three hours later, the mice were euthanized, and each peritoneal cavity was washed with 3 mL of phosphate-buffered saline (PBS) containing 1 mM EDTA. The total leukocyte count was determined in each peritoneal cavity wash using a hemocytometer and presented as number of cells/mL [3].\nFigure 3 (A) Results from P. perfoliatus extract on carrageenan-induced leukocyte migration into the peritoneal cavity in mice (total number × 10^6). […] (B) Results from P. perfoliatus extract on acetic acid-induced vascular permeability. Mice received different treatments 1 h before acetic acid (0.6%, i.p.) and Evans blue dye injections. The amount of dye extravasation into the abdominal cavity was quantified and used as an indicator of inflammation degree. The results are shown as means ± SEM (n = 5–6). * p < 0.05 compared to saline group. ^# p < 0.05 compared to control (carrageenan or acetic acid only treated group)."}, "[4]": {"molecular_target": "5-lipoxygenase (LOX)", "test": "Lipoxygenase inhibition, enzyme immunoassay kit", "type": "biochemical", "settings": "mean ± SE", "procedure": "The in vitro enzymatic activities were determined, utilizing enzyme immunoassay kits (Cayman Chemical, Ann Arbor, MI, USA) following the manufacturer’s instructions and the study by Adellall et al.."}, "[5]": {"tested_on": "acetic acid-induced writhing in mice", "test": "Acetic acid-induced abdominal writhing", "settings": "20 mg/kg, p.o.", "method": "The peripheral analgesic activity of the extract was evaluated by the acetic acid-induced writhing model in mice according to Sobeh et al. [3]. […] The number of writhes, manifested as extension of hind legs, constriction of abdomen, or turning of trunk was evaluated within 25 min. The reduction in the number of writhes as compared to the control group is indicative of the analgesic potential of the extract [3]. The percent inhibition of writhing was calculated using the following formula as previously reported [18]. % Analgesic activity = (mean writhing count (control-treatment)/mean writhing count (control)).\nThe data results were quantified at one-hour intervals after administration of either the extract (200 and 400 mg/kg, p.o.) or nalbuphine (10 mg/kg, p.o.)."}, "[6]": {"tested_on": "Brewer's yeast-induced pyrexia in mice", "test": "Brewer's yeast-induced pyrexia", "type": "in vivo, mouse", "settings": "150 mg/kg", "procedure": "Pyrexia in mice was induced as previously reported by Liu et al. with minor modifications. The animals’ initial rectum temperature was determined using a lubricated digital thermometer. Suspension of Brewer’s yeast was prepared in normal saline (30%) and injected subcutaneously behind the neck of the animal (1 mL/100 g). After 18 h, rectal temperatures of the mice were determined again (T0). […] Pyretic animals received P. perfoliatus extract (200, 400, and 600 mg/kg, orally), paracetamol (150 mg/kg), or vehicle. Rectal temperatures were measured at 30 min, 1, 2, 3 and 24 h following the different treatments."}, "[7]": {"tested_on": "carrageenan-induced leukocyte migration in mice", "settings": "cited from earlier work"}, "[8]": {"tested_on": "heat-induced nociceptive pain in mice", "test": "Hot plate test (central antinociception)", "settings": "10 mg/kg", "method": "To investigate the possible central analgesic activity of the studied extract, the hot plate test was performed according to Sobeh et al. [3]. […] One hour later, each individual mouse was placed on a hot plate preheated at 55 ± 1 °C and observed for any response to the heat-induced nociceptive pain (licking the fore and hind paws, hind paw lifting, or jumping). […] The overall antinociceptive activity of the extract was estimated by calculating the area under the curve (AUC) for the latency responses at the stated time points using GraphPad Prism.\n(B) Hot plate response latency (s) assay. (C) AUC of response latency shown in panel (B)."}, "[9]": {"tested_on": "carrageenan-induced paw edema in rats", "settings": "20 mg/kg, compared to the control group; cited from earlier work"}}, "data": [{"molecule": "O=C1O[C@H]([C@@H](O)CO)C(O)=C1O", "note": "[Ascorbic acid]", "values": [{"measurement": "TAC", "setting": "[1]", "value": "28.27 ± 1.83", "unit": "U/L"}]}, {"molecule": "O=C(O)Cc1ccccc1Nc1c(Cl)cccc1Cl", "note": "[Diclofenac]", "values": [{"measurement": "inhibition of vascular permeability", "setting": "[2]", "value": 67, "unit": "%"}, {"measurement": "decrease of the number of leukocytes", "setting": "[3]", "value": 42, "unit": "%"}, {"measurement": "LOX IC50", "setting": "[4]", "value": "2.83 ± 0.07", "unit": "µg/mL"}, {"measurement": "reduction of the control writhes", "setting": "[5]", "value": 67, "unit": "%"}]}, {"molecule": "CC(=O)Nc1ccc(O)cc1", "note": "[Paracetamol]", "values": [{"measurement": "Rectal Temperature Recorded Following Different Treatments", "setting": "[6]; 0.5 h", "value": "38.14 ± 0.19", "unit": "°C"}, {"measurement": "Rectal Temperature Recorded Following Different Treatments", "setting": "[6]; 1 h", "value": "37.50 ± 0.31", "unit": "°C"}, {"measurement": "Rectal Temperature Recorded Following Different Treatments", "setting": "[6]; 2 h", "value": "37.12 ± 0.29", "unit": "°C"}, {"measurement": "Rectal Temperature Recorded Following Different Treatments", "setting": "[6]; 3 h", "value": "36.96 ± 0.24", "unit": "°C"}, {"measurement": "Rectal Temperature", "setting": "[6]; 18 h after yeast injection (T0, before treatment)", "value": "38.60 ± 0.18", "unit": "°C"}, {"measurement": "Rectal Temperature Recorded Following Different Treatments", "setting": "[6]; 24 h", "value": "36.50 ± 0.22", "unit": "°C"}]}, {"molecule": "O=C(O)/C=C/c1ccc(O)c(O)c1", "note": "[caffeic acid]", "values": [{"measurement": "effect on leukocyte migration", "setting": "[7]", "value": "inhibited leukocyte migration"}]}, {"molecule": "O=C(/C=C/c1ccc(O)c(O)c1)O[C@@H]1C[C@](O)(C(=O)O)C[C@@H](O)[C@H]1O", "note": "[chlorogenic acid]", "values": [{"measurement": "effect on leukocyte migration", "setting": "[7]", "value": "inhibited leukocyte migration"}]}, {"molecule": "Oc1ccc2c3c1O[C@H]1[C@@H](O)CC[C@@]4(O)[C@@H](C2)N(CC2CCC2)CC[C@]314", "note": "[nalbuphine]", "values": [{"measurement": "increase in AUC of thermal response latency vs control", "setting": "[8]", "value": 154.7, "unit": "%"}]}, {"molecule": "O=C(O)c1ccc(O)cc1", "note": "[p-Hydroxybenzoic acid]", "values": [{"measurement": "effect on edema thickness", "setting": "[9]", "value": "significantly decreased the edema thickness"}]}]}
